In patent publication US20170088609A1, “ANTICANCER COMBINATION THERAPY” (priority 2015, published 2017):

Experiments:
[1] = system: T790M-containing cell lines; settings: several preclinical models; cited from earlier work
mutant forms of EGFR = experiment: Enzymatic inhibitory activity towards EGFR; format: biochemical
Source text: (§1) Compound 1 is a small molecule epidermal growth factor receptor (EGFR) mutant-specific inhibitor. […] Anti-tumor efficacy was independent of schedule (once daily versus twice daily administration) and was tolerated by the mice at clinically relevant exposure. Compound 1 is a novel, 3rd generation EGFR mutant-specific TKI, which is currently being investigated in first and second line setting for treatment of patients with EGFR-mutated NSCLC.

EGFR mutant cell lines = experiment: Cellular assays comparing EGFR mutant with EGFR wild type cell lines (proliferation); format: cell-based; settings: EGFR mutant vs EGFR wild type cell lines
Source text: as §1

[2] = system: HCC827 (EGFRDelE746-A750)
Source text: as §1

H1975 (EGFRL858R/T790M) = experiment: In vivo xenograft study, NSCLC model H1975; settings: H1975 xenograft in mice; once daily or twice daily
Source text: as §1

[3] = system: PC-9/GR/WR tumor xenografts; experiment: PC-9/GR/WR xenograft studies (tumor volume); format: in vivo; settings: SCID mice; HM61713 200 and 400 mg/kg oral gavage 5 days a week
Description: To establish the PC-9/GR/WR xenograft model, female severe combined immunodeficiency (SCID) mice (18-20 g, 6 weeks of age) were purchased from Charles River Laboratories. All experimental procedures were conducted following a protocol approved by the Institutional Animal Care and Use committee of Asan Institute for Life Sciences (2015-02-062). […] Combination with WZ4002: […] Combination with HM61713: […] Body weights were measured every 3-4 days. At the end of the combination experiment with WZ4002, tumors from each group were homogenized for lysate preparation and analyzed by Western Blotting.

SMILES	inhibition of T790M-containing cell lines [1]	blocking of the catalytic activity of EGFR mutants (mutant forms of EGFR; common EGFR mutants (L858R and exon 19 deletions) and certain uncommon EGFR mutants including T790M, covalent binding)	enzymatic inhibitory activity towards mutant forms of EGFR compared to wild type EGFR (mutant forms of EGFR; in vitro)	inhibition of proliferation of mutated cell lines at lower concentration than for cells expressing wild type EGFR receptor (EGFR mutant cell lines)	anti-tumor activity as a single agent ([2]; HCC827 xenograft in mice, once daily or twice daily)	tolerability in mice ([2]; mouse, in vivo)	anti-tumor activity as a single agent (H1975 (EGFRL858R/T790M))	response of PC-9/GR/WR tumor xenografts to monotherapy [3]
COc1cc2ncnc(Nc3ccc(F)c(Cl)c3)c2cc1NC(=O)/C=C/CN1CCCCC1 [dacomitinib]	effectively inhibit							
C=CC(=O)Nc1cccc(Oc2nc(Nc3ccc(N4CCN(C)CC4)cc3)nc3ccsc23)c1 [compound 1, N-(3-{2-[4-(4-methyl-piperazin-1-yl)-phenylamino]-thieno[3,2-d]pyrimidin-4-yloxy}-phenyl)-acrylamide]		irreversibly blocks	more potent	approximately 35 fold	Tumor regressions	tolerated	Tumor regressions	Cross-resistance
